Data taken from US20210261971A1, “COMPOSITIONS AND METHODS FOR AMELIORATING TISSUE INJURY, ENHANCING LIVER REGENERATION AND STEM CELL THERAPIES” (UNIVERSITY OF SOUTHERN CALIFORNIA, priority 2018, published 2021).
Entries after “also recorded” stand apart in the source; their conditions may differ. Like-named read-outs stand apart in the source and are kept apart here.

How the values were obtained:
Assay type in all cases: in vivo, rat
[1] = system: BM sprocs; test: Hepatic engraftment of GFP+ BM sprocs after PH (% GFP+ LSECs, EGFP bone marrow transplant)
Description: FIG. 7D illustrates the percentage of liver sinusoidal endothelial cells (LSECs) that are bone marrow-derived, i.e. derived from BM sprocs (y-axis labeled % GFP+ LSECs). Hepatic engraftment determined as the percentage of bone marrow-derived LSECs after PH is enhanced by MMP-9 ASO or intraportal MMP inhibitor, whereas systemic inhibition of MMP by doxycycline or intraperitoneal MMP inhibitor reduces hepatic engraftment of BM sprocs. Rats were transplanted with bone marrow from a transgenic EGFP rat to allow tracking of bone marrow cells. Rats were treated with one month of ASO, 2 days of doxycycline, or infusion with the MMP inhibitor followed by partial hepatectomy. On day 2 LSECs were isolated and the percentage of GFP+ LSECs was determined by flow cytometry.
Bone marrow transplantation. BM cells were obtained from one tibia and femur from the donor. Recipients underwent 1,000 cGy total body irradiation and were injected via tail vein with 50 million BM cells. Rats received oxytetracycline (200 mg/ml) diluted 1:1,000 in the drinking water starting two days before irradiation and continuing until one week after irradiation. BM was allowed to engraft for 2 months before use. BM from Lew-Tg(CAG-EGFP)ys Lewis rats was transplanted into wild-type Lewis rats and cells were tracked by GFP expression.
LSEC isolation. LSECs were isolated by collagenase perfusion, iodixanol density gradient centrifugation, and centrifugal elutriation, as previously described (22, 23). Yields averaged 86×10^6 cells per normal rat liver (range 69-95×10^6) with average viability of 94% (range 91-96%). Purity of the cells was 99%, as determined by uptake of formaldehyde-treated serum albumin (kind gift from Bard Smedsrod, University of Tromso, Tromso, Norway), a function specific to LSECs. Cells isolated by this protocol have an appropriate range of fenestrae organized in sieve plates.
(§1) Flow cytometry. Flow cytometry was performed using a FACSCalibur (BD Biosciences). Isotype control antibodies were used to determine appropriate gates, voltages, and compensation required for multivariate flow cytometry. Cell Quest Pro software was used for analysis

[2] = system: BM sprocs (CD133+45+31+ cells); test: Recruitment of BM sprocs after PH: number in bone marrow and circulation by immunomagnetic selection and flow cytometry; conditions: for number of circulating CXCR7+ sprocs: 6 hours after PH
Method: Sproc isolation. BM and circulating sprocs were isolated by immunomagnetic selection for CD133 using a CD133 Cell Isolation Kit (Miltenyi Biotec, Auburn, Calif.) and separation with an autoMACS Pro (Miltenyi Biotec, Auburn, Calif.), followed by FACS sorting for CD45 and CD31 (FIG. 26, or Supporting Fig S1).
To determine the number of sprocs in the circulation and BM from Lewis rats 6 hours after partial hepatectomy, CD133+ cells were isolated by immunomagnetic selection for CD133 from peripheral blood or BM. Cell suspensions were preblocked with FcR blocking reagent and incubated for 60 minutes with antibodies to rat CD45 and CD31. CD133+45+31+ cells were quantified by flow cytometry. In some experiments cells were also stained with antibody to rat CXCR7, to identify CD133+45+31+CXCR7+ cells in the circulation.
as §1

[3] = system: infused allogeneic sprocs; test: Model of stem cell therapy: engraftment of infused GFP+ allogeneic sprocs after PH; conditions: 3 months; control group 1.5%
Method: FIG. 8 graphically illustrates the percent LSECs as a function of engraftments of infused allogenic sprocs, and examines the concept that impairment of BM release of sprocs will favor engraftment of exogenously infused progenitor cells. […] When the percentage of cells derived from the GFP+ allogeneic progenitors was examined at 3 months, 1.5% were GFP+ in the control group versus 14% in the doxycycline group (data not shown). Method: rats were pre-treated with 2 days of doxycycline, 15 mg/kg intra-gastrically twice daily, followed by partial hepatectomy. 1 million sprocs were isolated from the livers of GFP+ rats and infused by tail vein injection. On day 2 and after 3 months LSECs were isolated and the number of GFP+ cells was determined by flow cytometry. Increased ischemia-reperfusion injury in Non-Alcoholic Fatty Liver Disease (NAFLD) due to impaired sdf-1 signaling to bone marrow sprocs can be attenuated by liver-selective MMP inhibition: Systemic MMP inhibition: Doxycycline (Sigma, St. Louis), 15 mg/kg i.g., was given twice daily starting 2 days before the relevant study. […] Purity of the cells was 99%, as determined by uptake of formaldehyde-treated serum albumin (kind gift from Bard Smedsrod, University of Tromso, Tromso, Norway), a function specific to LSECs. […]

[4] = system: Lewis rats; test: Liver regeneration after two-thirds partial hepatectomy (PH): liver-to-body weight ratio, Ki-67 proliferation; conditions: for hepatocyte proliferation (ki-67) compared to respective control: day 2 after PH, intraportal infusion
Method: Partial (70%) hepatectomy was performed under general anesthesia with ketamine-xylazine (80-90 mg/kg ip). For 70% partial hepatectomy, the median and left lateral lobes were removed. Buprenorphine SR (1 mg/kg) was used postoperatively for analgesia.
Liver-selective MMP-9 inhibition: Knockdown of MMP-9 was achieved by injection of one of two MMP-9 antisense oligonucleotides that were a kind gift from Ionis Pharmaceuticals (Ions No 283953 and 283973, Carlsbad, Calif.; 20 mg/kg intraperitoneally twice weekly for 4 weeks.
Systemic MMP inhibition: Doxycycline (Sigma, St. Louis), 15 mg/kg i.g., was given twice daily starting 2 days before the relevant study. Control studies were performed with the same dose of a chemically modified tetracycline, isochlorotetracycline, which is only a weak MMP inhibitor. In other experiments, MMP-2/9 was inhibited by infusing 2-[(4-biphenylsulfonyl)amino]-3-phenyl-propionic acid, 100 μg/kg/h, intraperitoneally with an Alzet mini-osmotic pump (model 2001, Durect Corporation, Cupertino Calif.).
Deparaffinized 5 μm sections of liver were treated with Bond ER-2 antigen retrieval (Leica Biosystems, Buffalo Grove, Ill.) for 20 min. After preblocking for 10 min with Rodent Block R (Cat #RBR962G, Biocare, Pacheco, Calif.), sections were incubated with antibody against Ki-67 for 60 min. Immunohistochemistry was performed by incubating sections with rabbit-on-rodent HRP-Polymer (cat #RMR622G, Biocare) for 30 min. Slides were rinsed in Bond diaminobenzidine (Leica Biosystems) for 10 min. After counterstaining with Bond hematoxylin, slides were dehydrated and covered using a coverslip with resinous mounting medium (Leica Biosystems).
Ki-67 positive cells were determined using photographs taken with a 20×-objective in 15 lobules per rat, n=3. To assess the percentage of proliferating hepatocytes and non-parenchymal cells, slides were coded and the percentage Ki-67 positive cells was determined blindly by X.W. To determine zonation of proliferating cells, each lobule was divided into three even fields and the total number of ki-67 positive cells/field was counted.

[5] = system: Lewis rats; test: Liver histology for toxicity of MMP inhibitors given to controls
[6] = system: MMP-9; test: Immunoblot of hepatic pro-MMP-9 and bone marrow extracellular fluid MMP-9/pro-MMP-9 after PH; conditions: 6 hours after PH
Method: Immunoblotting. Samples from freshly isolated liver were harvested using triple lysis buffer (TLB: 50 mM Tris base, 150 mM NaCl, 3 mM sodium azide, 12 mM sodium deoxycholate, 0.1% SDS, 1% Nonidet-P40) supplemented with 2 mM phenylmethylsulphonyl fluoride (PMSF), 1 mM sodium orthovanadate and 1% protease inhibitors cocktail (Santa Cruz sc-24948). Proteins were purified by centrifugation at 15,000 g at 4° C. for 10 min and quantified using DC™ Protein Assay Kit (BioRad). The samples obtained from bone marrow extracellular fluid were preserved in PBS. For MMP-9 analysis, 100 μg of total protein was used from each sample per lane and resolved on NUPAGE™ NOVEX™ 10% Bis-Tris Protein Gels using MOPS running buffer. Proteins were transferred onto 0.45 μm nitrocellulose membranes via electroblotting using XCell II™ Blot Module (Invitrogen), for 1 h, 30V. For SDF-1 and VEGF analysis, 75 μg of total protein was used from each sample per lane and resolved on NUPAGE™ NOVEX™ 4-12% Bis-Tris Protein Gels using MES running buffer. Proteins were transferred onto 0.2 μm nitrocellulose membranes via electroblotting using Trans-blot SD Semi-Dry Transfer Cell™ (Bio-rad), for 20 min, 25V. Membranes were blocked using NAP-BLOCKER™. […] Membrane digital images were acquired with the Odyssey Infrared Imaging System (LI-COR) and analyzed using the LI-COR IMAGE STUDIO™. […]

Compound: isochlorotetracycline
- hepatic engraftment of BM sprocs (% GFP+ LSECs) [1]: no effect

Compound: C[C@H]1c2cccc(O)c2C(=O)C2=C(O)[C@]3(O)C(=O)C(C(N)=O)=C(O)[C@@H](N(C)C)[C@@H]3[C@@H](O)[C@@H]21 [doxycycline, Doxycycline]
- reduction of CXCR7+ sprocs mobilized to the circulation ([2]; after PH, systemic): 90%
- reduction of mobilization of BM sprocs to the circulation ([2]; after PH, systemic): 72%
- reduction of hepatic engraftment of BM sprocs compared to control/PH ([1]; systemic): 58%
- percentage of GFP+ LSECs derived from infused allogeneic progenitors [3]: 14%
- reduction of liver-to-body weight ratio compared to its solvent control ([4]; day 5 after two-thirds PH, doxycycline for 2 days before PH (systemic)): 29%
- hepatotoxicity (histology) [5]: neither doxycycline nor intraportal MMP-2/9 inhibitor given to controls was hepatotoxic
- hepatotoxicity (histology) ([5]; listed as coxycycline): no evidence of toxicity

Compound: O=C(O)[C@@H](Cc1ccccc1)NS(=O)(=O)c1ccc(-c2ccccc2)cc1 [MMP-2/9 inhibitor, (2R)-2-[(4-Biphenylylsulfonyl)amino]-3-phenylpropionic acid]
- number of circulating CXCR7+ sprocs ([2]; intraperitoneal): reduced
- number of circulating CXCR7+ sprocs ([2]; intraportal infusion): increased
- reduction of CXCR7+ sprocs mobilized to the circulation ([2]; after PH, intraperitoneal): 86%
- increase of CXCR7+ sprocs in the circulation ([2]; after PH, intraportal infusion): 110%
- hepatic engraftment of BM sprocs (% GFP+ LSECs) ([1]; intraperitoneal): reduced
- reduction of hepatic engraftment of BM sprocs compared to control/PH ([1]; intraperitoneal): 36%
- hepatic engraftment of BM sprocs (% GFP+ LSECs) ([1]; intraperitoneal, listed as MMP inhibitor): reduces
- hepatic engraftment of BM sprocs (% GFP+ LSECs) ([1]; intraportal): enhanced
- increase of hepatic engraftment of GFP+ BM sprocs compared to control/PH ([1]; intraportal): 45%
- increase of hepatic MMP-9 protein expression after PH ([6]; intraperitoneal): abrogated the increase in hepatic MMP-9 expression
- increase of hepatic MMP-9 protein expression after PH ([6]; intraportal): abrogated the increase in hepatic MMP-9 expression
- hepatocyte proliferation (ki-67) compared to respective control [4]: enhances
- hepatocyte proliferation (ki-67) compared to respective control ([4]; listed as MMPi): enhanced
- hepatotoxicity (histology) ([5]; intraportal): no evidence of toxicity; also recorded: neither doxycycline nor intraportal MMP-2/9 inhibitor given to controls was hepatotoxic
